Values after ≈ are worked out from the molar mass of the structure shown. Where two headings read alike, the source gives them in different places.
Experiments:
[1] = system: M. tuberculosis H37Ra-lux; assay: microbe, parasite or virus in culture; assay type: cell-based, Mycobacterium tuberculosis; conditions: for IC50: read-out: M. tuberculosis H37Ra-lux IC50; for IC90: read-out: M. tuberculosis H37Ra-lux IC90
[2] = system: Escherichia coli; assay: Antibacterial screening against E. coli; assay type: cell-based; conditions: read-out: E. coli IC50
[3] = system: Staphylococcus aureus; assay: Antibacterial screening against S. aureus; assay type: cell-based; conditions: read-out: S. aureus IC50
[4] = system: MTB; conditions: cited from earlier work
[5] = system: MTB H37Rv; conditions: cited from earlier work
[6] = Mycobacterium tuberculosis, H37RA, 168 h

Compound	IC50 [1, 6] [µM]	IC50 [2] [µM]	IC50 ([3]; Staphylococcus aureus) [µM]	other results
O=C(Nc1ccc(N2CCN(C(=O)c3cnccn3)CC2)nc1)c1ccccc1 [6a, N-(6-(4-(Pyrazine-2-carbonyl)piperazin-1-yl)pyridin-3-yl)benzamide]	1.46	> 64	> 64	
COc1ccc(C(=O)Nc2ccc(N3CCN(C(=O)c4cnccn4)CC3)nc2)cc1 [6b, 4-Methoxy-N-(6-(4-(pyrazine-2-carbonyl)piperazin-1-yl)pyridin-3-yl)benzamide]	> 64	> 64	> 64	
CC(C)(C)c1ccc(C(=O)Nc2ccc(N3CCN(C(=O)c4cnccn4)CC3)nc2)cc1 [6c, 4-(tert-Butyl)-N-(6-(4-(pyrazine-2-carbonyl)piperazin-1-yl)pyridin-3-yl)benzamide]	> 64	> 64	> 64	
O=C(Nc1ccc(N2CCN(C(=O)c3cnccn3)CC2)nc1)c1ccc(Cl)cc1 [6d, 4-Chloro-N-(6-(4-(pyrazine-2-carbonyl)piperazin-1-yl)pyridin-3-yl)benzamide]	> 64	> 64	> 64	
O=C(Nc1ccc(N2CCN(C(=O)c3cnccn3)CC2)nc1)c1ccc(Br)cc1 [6e, 4-Bromo-N-(6-(4-(pyrazine-2-carbonyl)piperazin-1-yl)pyridin-3-yl)benzamide]	2.18	> 64	> 64	
O=C(Nc1ccc(N2CCN(C(=O)c3cnccn3)CC2)nc1)c1cccc([N+](=O)[O-])c1 [6f, 3-Nitro-N-(6-(4-(pyrazine-2-carbonyl)piperazin-1-yl)pyridin-3-yl)benzamide]	> 64	> 64	> 64	Anti-TB activity against M. tuberculosis H37Ra in words [1]: inactive
O=C(Nc1ccc(N2CCN(C(=O)c3cnccn3)CC2)nc1)c1cccc(Br)c1 [6g, 3-Bromo-N-(6-(4-(pyrazine-2-carbonyl)piperazin-1-yl)pyridin-3-yl)benzamide]	> 64	> 64	> 64	Anti-TB activity against M. tuberculosis H37Ra in words [1]: inactive
Cc1ccccc1C(=O)Nc1ccc(N2CCN(C(=O)c3cnccn3)CC2)nc1 [6h, 2-Methyl-N-(6-(4-(pyrazine-2-carbonyl)piperazin-1-yl)pyridin-3-yl)benzamide]	1.82	> 64	> 64	IC90 [1]: 3.85 µM
O=C(Nc1ccc(N2CCN(C(=O)c3cnccn3)CC2)nc1)c1ccccc1I [6i, 2-Iodo-N-(6-(4-(pyrazine-2-carbonyl)piperazin-1-yl)pyridin-3-yl)benzamide]	> 64	> 64	> 64	
O=C(Nc1ccc(N2CCN(C(=O)c3cnccn3)CC2)nc1)c1c(Cl)cccc1Br [6j, 2-Bromo-6-chloro-N-(6-(4-(pyrazine-2-carbonyl)piperazin-1-yl)pyridin-3-yl)benzamide]	1.82	> 64	> 64	IC50 [1]: 2.14 µM; IC90 [1]: 3.94 µM
O=C(Nc1ccc(N2CCN(C(=O)c3cnccn3)CC2)nc1)c1ccc(Br)cc1Cl [6k, 4-Bromo-2-chloro-N-(6-(4-(pyrazine-2-carbonyl)piperazin-1-yl)pyridin-3-yl)benzamide]	1.35	> 64	> 64	
O=C(Nc1ccc(N2CCN(C(=O)c3cnccn3)CC2)nc1)c1ccc(Cl)cc1Cl [6l, 2,4-Dichloro-N-(6-(4-(pyrazine-2-carbonyl)piperazin-1-yl)pyridin-3-yl)benzamide]	> 64	> 64	> 64	Anti-TB activity against M. tuberculosis H37Ra in words [1]: inactive
O=C(Nc1ccc(N2CCN(C(=O)c3cnccn3)CC2)nc1)c1ccncc1 [6m, N-(6-(4-(Pyrazine-2-carbonyl)piperazin-1-yl)pyridin-3-yl)isonicotinamide]	> 64	> 64	> 64	Anti-TB activity against M. tuberculosis H37Ra in words [1]: loss of activity
O=C(Nc1ccc(N2CCN(C(=O)c3cnccn3)CC2)nc1)c1cnccn1 [6n, N-(6-(4-(Pyrazine-2-carbonyl)piperazin-1-yl)pyridin-3-yl)pyrazine-2-carboxamide]	> 64	> 64	> 64	Anti-TB activity against M. tuberculosis H37Ra in words [1]: loss of activity
O=C(Nc1ccc(N2CCCN(C(=O)c3cnccn3)CC2)nc1)c1ccccc1 [7a, N-(6-(4-(Pyrazine-2-carbonyl)-1,4-diazepan-1-yl)pyridin-3-yl)benzamide]	> 64	> 64	> 64	
CCOc1ccc(C(=O)Nc2ccc(N3CCCN(C(=O)c4cnccn4)CC3)nc2)cc1 [7b, 4-Ethoxy-N-(6-(4-(pyrazine-2-carbonyl)-1,4-diazepan-1-yl)pyridin-3-yl)benzamide]	> 64	> 64	> 64	
CC(C)(C)c1ccc(C(=O)Nc2ccc(N3CCCN(C(=O)c4cnccn4)CC3)nc2)cc1 [7c, 4-(tert-Butyl)-N-(6-(4-(pyrazine-2-carbonyl)-1,4-diazepan-1-yl)pyridin-3-yl)benzamide]	> 64	> 64	> 64	
O=C(Nc1ccc(N2CCCN(C(=O)c3cnccn3)CC2)nc1)c1ccc(Cl)cc1 [7d, 4-Chloro-N-(6-(4-(pyrazine-2-carbonyl)-1,4-diazepan-1-yl)pyridin-3-yl)benzamide]	> 64	> 64	> 64	
O=C(Nc1ccc(N2CCCN(C(=O)c3cnccn3)CC2)nc1)c1ccc(Br)cc1 [7e, 4-Bromo-N-(6-(4-(pyrazine-2-carbonyl)-1,4-diazepan-1-yl)pyridin-3-yl)benzamide]	2.12	> 64	> 64	

Compound	IC50 [1, 6] [µM]	IC50 [2] [µM]	IC50 ([3]; Staphylococcus aureus) [µM]	other results
O=C(Nc1ccc(N2CCCN(C(=O)c3cnccn3)CC2)nc1)c1cccc([N+](=O)[O-])c1 [7f, 3-Nitro-N-(6-(4-(pyrazine-2-carbonyl)-1,4-diazepan-1-yl)pyridin-3-yl)benzamide]	> 64	> 64	> 64	
O=C(Nc1ccc(N2CCCN(C(=O)c3cnccn3)CC2)nc1)c1cccc(Br)c1 [7g, 3-Bromo-N-(6-(4-(pyrazine-2-carbonyl)-1,4-diazepan-1-yl)pyridin-3-yl)benzamide]	> 64	> 64	> 64	
O=C(Nc1ccc(N2CCCN(C(=O)c3cnccn3)CC2)nc1)c1ccccc1I [7h, 2-Iodo-N-(6-(4-(pyrazine-2-carbonyl)-1,4-diazepan-1-yl)pyridin-3-yl)benzamide]	> 64	> 64	> 64	
O=C(Nc1ccc(N2CCCN(C(=O)c3cnccn3)CC2)nc1)c1ccc(Br)cc1Cl [7i, 4-Bromo-2-chloro-N-(6-(4-(pyrazine-2-carbonyl)-1,4-diazepan-1-yl)pyridin-3-yl)benzamide]	> 64	> 64	> 64	
O=C(Nc1ccc(N2CCCN(C(=O)c3cnccn3)CC2)nc1)c1ccc(Cl)cc1Cl [7j, 2,4-Dichloro-N-(6-(4-(pyrazine-2-carbonyl)-1,4-diazepan-1-yl)pyridin-3-yl)benzamide]	> 64	> 64	> 64	
O=C(Nc1ccc(N2CCCN(C(=O)c3cnccn3)CC2)nc1)c1cnccn1 [7k, N-(6-(4-(Pyrazine-2-carbonyl)-1,4-diazepan-1-yl)pyridin-3-yl)pyrazine-2-carboxamide]		> 64	> 64	
O=C(Nc1ccc(N2CCCN(C(=O)c3cnccn3)CC2)nc1)c1ccncc1 [7l, N-(6-(4-(Pyrazine-2-carbonyl)-1,4-diazepan-1-yl)pyridin-3-yl)isonicotinamide]	> 64	> 64	> 64	
O=C(Nc1ccc(N2CCCN(C(=O)c3cnccn3)CC2)nc1)c1c(F)cccc1Cl [7m, 2-Chloro-6-fluoro-N-(6-(4-(pyrazine-2-carbonyl)-1,4-diazepan-1-yl)pyridin-3-yl)benzamide]	> 64	> 64	> 64	
O=C(Nc1ccc(C(F)(F)F)cc1)c1cnccn1 [A, N-(4-(trifluoromethyl)phenyl)pyrazine-2-carboxamide]				MIC, anti-mycobacterial activity [4]: ≤ 0.002 µg/mL
Cc1cccc(NC(=O)c2cnccn2)c1Br [B, N-(2-bromo-3-methylphenyl)pyrazine-2-carboxamide]				MIC, anti-mycobacterial activity [4]: ≤ 0.002 µg/mL
Cc1ccc(NC(=O)c2cnccn2)cc1I [C, N-(3-iodo-4-methylphenyl)pyrazine-2-carboxamide]				MIC, anti-mycobacterial activity [4]: ≤ 0.002 µg/mL
Cc1ccc(NC(=O)c2cnc(C(C)(C)C)c(Cl)n2)cc1I [D, 5-(tert-Butyl)-6-chloro-N-(3-iodo-4-methylphenyl)pyrazine-2-carboxamide]				IC50, anti-mycobacterial activity [4]: 0.728 µg/mL (≈ 1.69 µM); IC90, anti-mycobacterial activity [4]: 0.819 µg/mL (≈ 1.91 µM)
C[C@H]1c2cccc(O)c2C(O)=C2C(=O)[C@]3(O)C(O)=C(C(N)=O)C(=O)[C@@H](N(C)C)[C@@H]3[C@@H](O)[C@@H]21 [Doxycyclin, reference compound]				IC50 [3]: 0.09 µM
O=C(NCCN1CCNCC1)c1cnccn1 [E, N-(2-(piperazin-1-yl)ethyl)pyrazine-2-carboxamide]				MIC against MTB H37Rv [5]: 12.2 µg/mL (≈ 51.9 µM)
O=C(NCCN1CCOCC1)c1cnccn1 [F, N-(2-morpholinoethyl)pyrazine-2-carboxamide]				MIC against MTB H37Rv [5]: 8.0 µg/mL (≈ 33.9 µM)
NNC(=O)c1ccncc1 [Isoniazid, reference compound]	0.013			
CCn1cc(C(=O)O)c(=O)c2cc(F)c(N3CCNCC3)cc21 [Norfloxacin, reference compound]		0.38		
NC(=O)c1cnccn1 [PZA, Pyrazinamide]				IC90, anti-mycobacterial activity [4]: > 20 µg/mL; MIC, anti-mycobacterial activity [4]: 0.008 µg/mL (≈ 0.065 µM)

Source: article PMC9050811 (RSC Advances, 2020)
